# Measurements from publication PMC12521730, “Quantitative dual-isotope preclinical SPECT/CT imaging and biodistribution of the mercury-197m/g theranostic pair with [^197m/gHg]HgCl2 and a [^197m/gHg]Hg-tetrathiol complex as a platform for radiopharmaceutical development” (EJNMMI Radiopharmacy and Chemistry, 2025).
# Assay: Ex vivo biodistribution (gamma counter)
# Type: in vivo, healthy male C57BL/6 mice
# Settings: Hg-197g, 2 h post administration
# Procedure: For animal injection, the tracer was prepared at high molar activity. Radiolabeling of H4Tetrathiol (10^–2 M in DMSO; 40 μL for imaging, 20 μL for bioD) (or DMSO, for [^197m/gHg]HgCl2 mice) with [^197m/gHg]HgCl2 (imaging: 26.7 MBq total m + g, 62 μL; bioD: 13.04 MBq total m + g, 31 μL) was performed in a mixture of ammonium acetate buffer (1 M; pH 7; 198 μL for imaging or 149 μL for bioD) and 6 M NaOH (72 μL or 38 μL required to achieve a pH of 7.5 after addition of activity, for imaging or BioD labeling, respectively). The reaction was allowed to stand for 1 h at 37 °C and quantitative (> 99%) non-isolated percentage radiochemical yield (%RCY) was confirmed via the iTLC methods mentioned above. Further, 100 µL of the reaction was diluted with 50 µL of PBS Tween-20 (0.01 M sodium phosphate, 0.15 M NaCl, 0.05% Tween-20) for imaging mice, or 50 µL of the reaction was diluted with 100 µL of PBS Tween-20 for BioD mice. The tracers were prepared immediately before injection to avoid radiolysis and minimize the tracer loss to any surfaces due to its lipophilicity. The injected doses of each isomer, ^197mHg and ^197gHg, were quantified by measuring an aliquot of known volume of each tracer preparation via HPGe gamma spectroscopy and decay corrected for time of injection using the Eqs. (1) and (2).
# The study was conducted in compliance with the guidelines set by the Canadian Council on Animal Care (CCAC) and approved by the Animal Care Committee (ACC) at the University of British Columbia (A20-0132). A total of eight healthy male C57BL/6 mice weighing approximately 30 g for group 1 and 25 g for group 2 were used in the study. The mice were divided into two experimental groups: group 1 (n = 4) received free [^197m/gHg]HgCl2, while group 2 (n = 4) received [^197m/gHg]Hg-Tetrathiol. Within each group, one mouse was allocated for imaging, while the rest were designated for ex vivo biodistribution analysis. For SPECT imaging, the designated mice were anesthetized using isoflurane via a precision vaporizer. […] Once anesthetized, each imaging mouse received an intravenous (IV) injection via the lateral tail vein of 150 μL of [^197m/gHg]HgCl2 (0.492 MBq ^197mHg + 3.171 MBq ^197gHg) or [^197m/gHg]Hg-Tetrathiol (0.899 MBq ^197mHg + 4.230 MBq ^197gHg) in PBS Tween-20 (0.01 M Na Phosphate, 0.15 M NaCl, 0.05% Tween-20).
# Mice received an IV injection of [^197m/gHg]HgCl2 (0.275 MBq ^197mHg + 1.758 MBq ^197gHg, 150 μL) or [^197m/gHg]Hg-Tetrathiol (0.384 MBq ^197mHg + 1.733 MBq ^197gHg, 150 μL) (n = 3 per group) via the lateral tail vein using a Tailveiner restrainer. After the injection, the mice were returned to their experimental cages and allowed unrestricted movement. Biodistribution studies were conducted 2 h after administration. Mice were humanely euthanized with an overdose of isoflurane followed by cardiac puncture to collect blood pool activity. The organs of interest were fully extracted, cleaned of blood without rinsing, weighed, and analysed for radioactivity using a calibrated gamma counter with the 55–93 keV energy window for ^197gHg and the 110–160 keV energy window for ^197mHg (Packard Cobra II, Perkin Elmer, Waltham, MA, USA). The stomach and intestines were carefully cleaned prior to analysis to remove residual contents. For tissues and fluids that could not be fully removed (muscle, blood and bone) activity values were extrapolated based on standardised organ weights for age- and sex-matched mice tables to ensure accurate normalization (Davies and Morris [1993]; Foster et al. [2014]). The stomach and whole intestines were cleaned before analysis. The radioactivity measurements were decay corrected for time of injection using the Eqs. (1) and (2). The results are reported as the percentage of the injected activity per gram of tissue (%IA/g) and percentage of the injected activity per tissue (%IA/organ).
smiles,measurement,value
O=C(CC[S-])OCC(COC(=O)CC[S-])(COC(=O)CC[S-])COC(=O)CC[S-].[Hg+2] [[^197m/gHg]Hg-Tetrathiol],Animal 1 (%IA/Organ): bladder,0.00 %IA/Organ
same,Animal 1 (%IA/Organ): blood,0.13 %IA/Organ
same,Animal 1 (%IA/Organ): bone,3.25 %IA/Organ
same,Animal 1 (%IA/Organ): brain,0.01 %IA/Organ
same,Animal 1 (%IA/Organ): feces,0.00 %IA/Organ
same,Animal 1 (%IA/Organ): heart,0.07 %IA/Organ
same,Animal 1 (%IA/Organ): kidneys,1.54 %IA/Organ
same,Animal 1 (%IA/Organ): large intestine,0.02 %IA/Organ
same,Animal 1 (%IA/Organ): liver,110.52 %IA/Organ
same,Animal 1 (%IA/Organ): lungs,0.95 %IA/Organ
same,Animal 1 (%IA/Organ): muscle,0.14 %IA/Organ
same,Animal 1 (%IA/Organ): pancreas,0.01 %IA/Organ
same,Animal 1 (%IA/Organ): small intestine,0.03 %IA/Organ
same,Animal 1 (%IA/Organ): spleen,3.22 %IA/Organ
same,Animal 1 (%IA/Organ): stomach,0.02 %IA/Organ
same,Animal 1 (%IA/Organ): tail,0.69 %IA/Organ
same,Animal 1 (%IA/Organ): urine,0.00 %IA/Organ
same,Animal 1 (%IA/g) g: bladder,0.05 %IA/g
same,Animal 1 (%IA/g) g: blood,0.09 %IA/g
same,Animal 1 (%IA/g) g: bone,1.72 %IA/g
same,Animal 1 (%IA/g) g: brain,0.03 %IA/g
same,Animal 1 (%IA/g) g: feces,0.04 %IA/g
same,Animal 1 (%IA/g) g: heart,0.55 %IA/g
same,Animal 1 (%IA/g) g: kidneys,4.07 %IA/g
same,Animal 1 (%IA/g) g: large intestine,0.12 %IA/g
same,Animal 1 (%IA/g) g: liver,85.85 %IA/g
same,Animal 1 (%IA/g) g: lungs,7.12 %IA/g
same,Animal 1 (%IA/g) g: muscle,0.01 %IA/g
same,Animal 1 (%IA/g) g: pancreas,0.06 %IA/g
same,Animal 1 (%IA/g) g: small intestine,0.14 %IA/g
same,Animal 1 (%IA/g) g: spleen,44.55 %IA/g
same,Animal 1 (%IA/g) g: stomach,0.16 %IA/g
same,Animal 1 (%IA/g) g: tail,1.37 %IA/g
same,Animal 1 (%IA/g) g: urine,0.03 %IA/g
same,Animal 2 (%IA/Organ): bladder,0.00 %IA/Organ
same,Animal 2 (%IA/Organ): blood,0.17 %IA/Organ
same,Animal 2 (%IA/Organ): bone,2.68 %IA/Organ
same,Animal 2 (%IA/Organ): brain,0.01 %IA/Organ
same,Animal 2 (%IA/Organ): feces,0.00 %IA/Organ
same,Animal 2 (%IA/Organ): heart,0.09 %IA/Organ
same,Animal 2 (%IA/Organ): kidneys,0.82 %IA/Organ
same,Animal 2 (%IA/Organ): large intestine,0.01 %IA/Organ
same,Animal 2 (%IA/Organ): liver,133.87 %IA/Organ
same,Animal 2 (%IA/Organ): lungs,0.87 %IA/Organ
same,Animal 2 (%IA/Organ): muscle,0.22 %IA/Organ
same,Animal 2 (%IA/Organ): pancreas,0.01 %IA/Organ
same,Animal 2 (%IA/Organ): small intestine,0.02 %IA/Organ
same,Animal 2 (%IA/Organ): spleen,4.01 %IA/Organ
same,Animal 2 (%IA/Organ): stomach,0.04 %IA/Organ
same,Animal 2 (%IA/Organ): tail,0.56 %IA/Organ
same,Animal 2 (%IA/Organ): urine,0.00 %IA/Organ
same,Animal 2 (%IA/g) g: bladder,0.04 %IA/g
same,Animal 2 (%IA/g) g: blood,0.11 %IA/g
same,Animal 2 (%IA/g) g: bone,1.37 %IA/g
same,Animal 2 (%IA/g) g: brain,0.02 %IA/g
same,Animal 2 (%IA/g) g: feces,0.05 %IA/g
same,Animal 2 (%IA/g) g: heart,0.74 %IA/g
same,Animal 2 (%IA/g) g: kidneys,2.02 %IA/g
same,Animal 2 (%IA/g) g: large intestine,0.05 %IA/g
same,Animal 2 (%IA/g) g: liver,103.98 %IA/g
same,Animal 2 (%IA/g) g: lungs,6.17 %IA/g
same,Animal 2 (%IA/g) g: muscle,0.02 %IA/g
same,Animal 2 (%IA/g) g: pancreas,0.04 %IA/g
same,Animal 2 (%IA/g) g: small intestine,0.07 %IA/g
same,Animal 2 (%IA/g) g: spleen,61.57 %IA/g
same,Animal 2 (%IA/g) g: stomach,0.32 %IA/g
same,Animal 2 (%IA/g) g: tail,1.15 %IA/g
same,Animal 2 (%IA/g) g: urine,0.03 %IA/g
same,Animal 3 (%IA/Organ): bladder,0.00 %IA/Organ
same,Animal 3 (%IA/Organ): blood,0.18 %IA/Organ
same,Animal 3 (%IA/Organ): bone,2.26 %IA/Organ
same,Animal 3 (%IA/Organ): brain,0.01 %IA/Organ
same,Animal 3 (%IA/Organ): feces,0.00 %IA/Organ
same,Animal 3 (%IA/Organ): heart,0.09 %IA/Organ
same,Animal 3 (%IA/Organ): kidneys,1.16 %IA/Organ
same,Animal 3 (%IA/Organ): large intestine,0.02 %IA/Organ
same,Animal 3 (%IA/Organ): liver,131.25 %IA/Organ
same,Animal 3 (%IA/Organ): lungs,1.12 %IA/Organ
same,Animal 3 (%IA/Organ): muscle,0.21 %IA/Organ
same,Animal 3 (%IA/Organ): pancreas,0.01 %IA/Organ
same,Animal 3 (%IA/Organ): small intestine,0.02 %IA/Organ
same,Animal 3 (%IA/Organ): spleen,4.84 %IA/Organ
same,Animal 3 (%IA/Organ): stomach,0.09 %IA/Organ
same,Animal 3 (%IA/Organ): tail,0.27 %IA/Organ
same,Animal 3 (%IA/Organ): urine,0.00 %IA/Organ
same,Animal 3 (%IA/g) g: bladder,0.03 %IA/g
same,Animal 3 (%IA/g) g: blood,0.13 %IA/g
same,Animal 3 (%IA/g) g: bone,1.20 %IA/g
same,Animal 3 (%IA/g) g: brain,0.03 %IA/g
same,Animal 3 (%IA/g) g: feces,0.00 %IA/g
same,Animal 3 (%IA/g) g: heart,0.82 %IA/g
same,Animal 3 (%IA/g) g: kidneys,3.17 %IA/g
same,Animal 3 (%IA/g) g: large intestine,0.10 %IA/g
same,Animal 3 (%IA/g) g: liver,159.50 %IA/g
same,Animal 3 (%IA/g) g: lungs,8.45 %IA/g
same,Animal 3 (%IA/g) g: muscle,0.02 %IA/g
same,Animal 3 (%IA/g) g: pancreas,0.08 %IA/g
same,Animal 3 (%IA/g) g: small intestine,0.09 %IA/g
same,Animal 3 (%IA/g) g: spleen,77.82 %IA/g
same,Animal 3 (%IA/g) g: stomach,0.89 %IA/g
same,Animal 3 (%IA/g) g: tail,0.56 %IA/g
same,Animal 3 (%IA/g) g: urine,0.03 %IA/g
same,Animal 4 (%IA/Organ): bladder,0.00 %IA/Organ
same,Animal 4 (%IA/Organ): blood,0.15 %IA/Organ
same,Animal 4 (%IA/Organ): bone,2.62 %IA/Organ
same,Animal 4 (%IA/Organ): brain,0.01 %IA/Organ
same,Animal 4 (%IA/Organ): feces,0.00 %IA/Organ
same,Animal 4 (%IA/Organ): heart,0.09 %IA/Organ
same,Animal 4 (%IA/Organ): kidneys,1.00 %IA/Organ
same,Animal 4 (%IA/Organ): large intestine,0.01 %IA/Organ
same,Animal 4 (%IA/Organ): liver,107.31 %IA/Organ
same,Animal 4 (%IA/Organ): lungs,0.93 %IA/Organ
same,Animal 4 (%IA/Organ): muscle,0.20 %IA/Organ
same,Animal 4 (%IA/Organ): pancreas,0.01 %IA/Organ
same,Animal 4 (%IA/Organ): small intestine,0.02 %IA/Organ
same,Animal 4 (%IA/Organ): spleen,4.62 %IA/Organ
same,Animal 4 (%IA/Organ): stomach,0.01 %IA/Organ
same,Animal 4 (%IA/Organ): tail,2.67 %IA/Organ
same,Animal 4 (%IA/Organ): urine,0.00 %IA/Organ
same,Animal 4 (%IA/g) g: bladder,0.07 %IA/g
same,Animal 4 (%IA/g) g: blood,0.10 %IA/g
same,Animal 4 (%IA/g) g: bone,1.40 %IA/g
same,Animal 4 (%IA/g) g: brain,0.02 %IA/g
same,Animal 4 (%IA/g) g: feces,0.01 %IA/g
